Results published in patent US8063099B2, “Trans-3-aza-bicyclo[3.1.0]hexane derivatives” (Actelion Pharmaceuticals Ltd., priority 2007, dated 2011).
pIC50: −log10 of the molar value. Read-outs that look alike come from different tables or passages of the source.

Key:
human orexin-2 receptor = target: T1, human orexin-2 receptor (Homo sapiens, UniProt O43614); test: Intracellular calcium measurements (FLIPR), orexin receptor antagonistic activity; assay type: cell-based; conditions: FLIPR Tetra, CHO cells expressing human orexin-2 receptor, 3 nM orexin-A, read-out: OX2 IC50
T1 construct: expressed in transfected cells; host or cells: Chinese hamster ovary (CHO) cells, G418 selection
T1 sequence (O43614 1-444): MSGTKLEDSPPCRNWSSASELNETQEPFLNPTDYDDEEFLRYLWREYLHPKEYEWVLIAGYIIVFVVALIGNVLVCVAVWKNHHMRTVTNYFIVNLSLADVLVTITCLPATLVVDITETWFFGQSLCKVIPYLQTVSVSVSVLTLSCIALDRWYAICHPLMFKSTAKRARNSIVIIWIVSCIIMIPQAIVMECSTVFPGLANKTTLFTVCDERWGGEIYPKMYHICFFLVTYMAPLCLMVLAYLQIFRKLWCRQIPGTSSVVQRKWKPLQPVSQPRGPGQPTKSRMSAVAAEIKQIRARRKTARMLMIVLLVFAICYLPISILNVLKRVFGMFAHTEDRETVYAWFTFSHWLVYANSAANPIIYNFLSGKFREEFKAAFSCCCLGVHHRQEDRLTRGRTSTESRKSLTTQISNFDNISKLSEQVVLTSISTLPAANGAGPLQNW
Experimental: (§1) The orexin receptor antagonistic activity of the compounds of formula (I) is determined in accordance with one of the following experimental methods.
(§2) Intracellular Calcium Measurements:
(§3) Chinese hamster ovary (CHO) cells expressing the human orexin-1 receptor and the human orexin-2 receptor, respectively, are grown in culture medium (Ham F-12 with L-Glutamine) containing 300 μg/ml G418, 100 U/ml penicillin, 100 μg/ml streptomycin and 10% heat inactivated fetal calf serum (FCS). The cells are seeded at 20'000 cells/well into 384-well black clear bottom sterile plates (Greiner). The seeded plates are incubated overnight at 37° C. in 5% CO2.
(§4) Human orexin-A as an agonist is prepared as 1 mM stock solution in MeOH:water (1:1), diluted in HBSS containing 0.1% bovine serum albumin (BSA), NaHCO3:0.375 g/l and 20 mM HEPES for use in the assay at a final concentration of 3 nM.
(§5) Antagonists are prepared as 10 mM stock solution in DMSO, then diluted in 384-well plates, first in DMSO, then in HBSS containing 0.1% bovine serum albumin (BSA), NaHCO3: 0.375 g/l and 20 mM HEPES.
(§6) On the day of the assay, 50 μl of staining buffer (HBSS containing 1% FCS, 20 mM HEPES, NaHCO3: 0.375 g/l, 5 mM probenecid (Sigma) and 3 μM of the fluorescent calcium indicator fluo-4 AM (1 mM stock solution in DMSO, containing 10% pluronic) is added to each well.
(§7) The 384-well cell-plates are incubated for 50 min at 37° C. in 5% CO2 followed by equilibration at RT for 30-120 min before measurement.
(§8) Within the Fluorescent Imaging Plate Reader (FLIPR2 or FLIPR Tetra, Molecular Devices), antagonists are added to the plate in a volume of 10 μl/well, incubated for 10 min and finally 10 μl/well of agonist is added. Fluorescence is measured for each well at 1 second intervals, and the height of each fluorescence peak is compared to the height of the fluorescence peak induced by 3 nM orexin-A with vehicle in place of antagonist. For each antagonist, the IC50 value (the concentration of compound needed to inhibit 50% of the agonistic response) is determined. With the FLIPR Tetra, non-optimized and optimized conditions were used. Optimized conditions were achieved by adjustment of pipetting speed and cell splitting regime. The calculated IC50 values of the compounds may fluctuate depending on the daily cellular assay performance. Fluctuations of this kind are known to those skilled in the art.

human orexin-1 receptor = target: T2, human orexin-1 receptor (Homo sapiens, UniProt O43613); test: as above; assay type: cell-based; conditions: FLIPR Tetra, CHO cells expressing human orexin-1 receptor, 3 nM orexin-A, read-out: OX1 IC50
T2 construct: expressed in transfected cells; host or cells: Chinese hamster ovary (CHO) cells, G418 selection
T2 sequence (O43613 1-425): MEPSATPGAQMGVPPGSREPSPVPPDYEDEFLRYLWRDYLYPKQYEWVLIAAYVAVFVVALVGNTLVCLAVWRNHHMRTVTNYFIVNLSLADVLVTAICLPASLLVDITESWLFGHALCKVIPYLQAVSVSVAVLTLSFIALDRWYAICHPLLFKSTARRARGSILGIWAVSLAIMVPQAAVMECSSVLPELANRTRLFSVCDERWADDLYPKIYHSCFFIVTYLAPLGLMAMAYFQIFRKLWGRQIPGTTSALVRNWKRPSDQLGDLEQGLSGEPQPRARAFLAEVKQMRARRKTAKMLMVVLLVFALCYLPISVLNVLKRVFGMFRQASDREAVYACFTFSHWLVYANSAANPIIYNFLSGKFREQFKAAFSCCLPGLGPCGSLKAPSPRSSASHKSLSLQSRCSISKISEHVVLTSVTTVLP
Experimental: as §1, §2, §3, §4, §5, §6, §7, §8

| Structure (SMILES) | pIC50 (human orexin-2 receptor; non-optimized conditions) | pIC50 (human orexin-1 receptor; non-optimized conditions) | pIC50 (human orexin-2 receptor; optimized conditions) | pIC50 (human orexin-1 receptor; optimized conditions) |
| --- | --- | --- | --- | --- |
| N#Cc1ccc(-c2sc(C3CC3)nc2C(=O)N2C[C@@H]3C[C@@H]3[C@H]2CNC(=O)c2cccc(Cl)c2)cc1 [Example 186, 3-Chloro-N-{(1S,2S,5R)-3-[5-(4-cyano-phenyl)-2-cyclopropyl-thiazole-4-carbonyl]-3-aza-bicyclo[3.1.0]hex-2-ylmethyl}-benzamide] | 6.53 | 5.49 | – | – |
| Cc1nc(C(=O)N2C[C@@H]3C[C@@H]3[C@H]2CNC(=O)c2cccc3c2CCO3)c(-c2cccc(C(F)(F)F)c2)s1 [Example 201, 2,3-Dihydro-benzofuran-4-carboxylic acid {(1S,2S,5R)-3-[2-methyl-5-(3-trifluoromethyl-phenyl)-thiazole-4-carbonyl]-3-aza-bicyclo[3.1.0]hex-2-ylmethyl}-amide] | 6.46 | 6.17 | – | – |
| CN(C)c1nc(C(=O)N2C[C@@H]3C[C@@H]3[C@H]2CNC(=O)c2scc3c2OCCO3)c(-c2cccc(F)c2)s1 [Example 220, 2,3-Dihydro-thieno[3,4-b][1,4]dioxine-5-carboxylic acid {(1S,2S,5R)-3-[2-dimethylamino-5-(3-fluoro-phenyl)-thiazole-4-carbonyl]-3-aza-bicyclo[3.1.0]hex-2-ylmethyl}-amide] | 7.32 | 6.94 | – | – |
| Cc1ccc(-c2ccsc2C(=O)N2C[C@@H]3C[C@@H]3[C@H]2CNC(=O)c2c(C)nc3sccn23)cc1 [Example 222, 6-Methyl-imidazo[2,1-b]thiazole-5-carboxylic acid [(1S,2S,5R)-3-(3-p-tolyl-thiophene-2-carbonyl)-3-aza-bicyclo[3.1.0]hex-2-ylmethyl]-amide] | – | – | 7.10 | 7.02 |
| Cc1cccc(-c2sc(C)nc2C(=O)N2C[C@@H]3C[C@@H]3[C@H]2CNc2ncc(Br)cn2)c1 [Example 244, {(1S,2S,5R)-2-[(5-Bromo-pyrimidin-2-ylamino)-methyl]-3-aza-bicyclo[3.1.0]hex-3-yl}-(2-methyl-5-m-tolyl-thiazol-4-yl)-methanone] | 6.19 | 7.29 | – | – |
| Cc1nc(C(=O)N2C[C@@H]3C[C@@H]3[C@H]2CNc2ncc(Br)cn2)c(-c2ccc(C)c(F)c2)s1 [Example 252, {(1S,2S,5R)-2-[(5-Bromo-pyrimidin-2-ylamino)-methyl]-3-aza-bicyclo[3.1.0]hex-3-yl}-[5-(3-fluoro-4-methyl-phenyl)-2-methyl-thiazol-4-yl]-methanone] | 6.46 | 7.10 | – | – |

The remaining lines, values ahead:

| pIC50 (human orexin-2 receptor; non-optimized conditions) | pIC50 (human orexin-1 receptor; non-optimized conditions) | pIC50 (human orexin-2 receptor; optimized conditions) | pIC50 (human orexin-1 receptor; optimized conditions) | Structure (SMILES) |
| --- | --- | --- | --- | --- |
| – | – | 7.42 | 7.54 | CCn1nc(C)cc1C(=O)NC[C@@H]1[C@H]2C[C@H]2CN1C(=O)c1nc(C2CC2)sc1-c1cccc(C)c1 [Example 237, 2-Ethyl-5-methyl-2H-pyrazole-3-carboxylic acid [(1S,2S,5R)-3-(2-cyclopropyl-5-m-tolyl-thiazole-4-carbonyl)-3-aza-bicyclo[3.1.0]hex-2-ylmethyl]-amide] |
| – | – | 7.26 | 7.19 | Cc1cccc(-c2sc(C)nc2C(=O)N2C[C@@H]3C[C@@H]3[C@H]2CNC(=O)c2cccc3nc(C)oc23)c1 [Example 256, 2-Methyl-benzoxazole-7-carboxylic acid [(1S,2S,5R)-3-(2-methyl-5-m-tolyl-thiazole-4-carbonyl)-3-aza-bicyclo[3.1.0]hex-2-ylmethyl]-amide] |
| – | – | 7.51 | 7.80 | Cc1cccc(-c2sc(C)nc2C(=O)N2C[C@@H]3C[C@@H]3[C@H]2CNC(=O)c2ccn3ccsc23)c1 [Example 260, Pyrrolo[2,1-b]thiazole-7-carboxylic acid [(1S,2S,5R)-3-(2-methyl-5-m-tolyl-thiazole-4-carbonyl)-3-aza-bicyclo[3.1.0]hex-2-ylmethyl]-amide] |
| – | – | 7.72 | 7.19 | Cc1ccc(-c2sccc2C(=O)N2C[C@@H]3C[C@@H]3[C@H]2CNC(=O)c2cccc3c2NCCO3)cc1 [Example 266, 3,4-Dihydro-2H-benzo[1,4]oxazine-5-carboxylic acid [(1S,2S,5R)-3-(2-p-tolyl-thiophene-3-carbonyl)-3-aza-bicyclo[3.1.0]hex-2-ylmethyl]-amide] |
| – | – | 7.26 | 7.24 | Cc1ccc(-c2sccc2C(=O)N2C[C@@H]3C[C@@H]3[C@H]2CNC(=O)c2cccc3nsnc23)cc1 [Example 274, Benzo[2,1,3]thiadiazole-4-carboxylic acid [(1S,2S,5R)-3-(2-p-tolyl-thiophene-3-carbonyl)-3-aza-bicyclo[3.1.0]hex-2-ylmethyl]-amide] |
| – | – | 7.49 | 6.93 | Cc1cccc(-c2sccc2C(=O)N2C[C@@H]3C[C@@H]3[C@H]2CNC(=O)c2cc3occc3n2C)c1 [Example 282, 4-Methyl-4H-furo[3,2-b]pyrrole-5-carboxylic acid [(1S,2S,5R)-3-(2-m-tolyl-thiophene-3-carbonyl)-3-aza-bicyclo[3.1.0]hex-2-ylmethyl]-amide] |
| – | – | 7.80 | 7.08 | Cc1cccc(-c2sccc2C(=O)N2C[C@@H]3C[C@@H]3[C@H]2CNC(=O)c2cccc3oc(C)nc23)c1 [Example 297, 2-Methyl-benzoxazole-4-carboxylic acid [(1S,2S,5R)-3-(2-m-tolyl-thiophene-3-carbonyl)-3-aza-bicyclo[3.1.0]hex-2-ylmethyl]-amide] |
| – | – | 7.85 | 7.55 | Cc1cccc(-c2sc(C)nc2C(=O)N2C[C@@H]3C[C@@H]3[C@H]2CNC(=O)c2cccc3sc(Cl)nc23)c1 [Example 299, 2-Chloro-benzothiazole-4-carboxylic Acid[(1S,2S,5R)-3-(2-methyl-5-m-tolyl-thiazole-4-carbonyl)-3-aza-bicyclo[3.1.0]hex-2-ylmethyl]-amide] |
